Source: DBAASP
≈ marks a conversion by molar mass, not a printed value. Where “and” joins values, the source holds several entries; their conditions need not be identical. Equal values may be shown once.

What was measured:
Experiment in all cases: ≥ marks a high value that may be exact or a test limit, other limits are often not marked, values filed in µg/mL are converted to µM
[1] = system: Pseudomonas aeruginosa BH01
[2] = system: Pseudomonas aeruginosa BH03
[3] = system: Pseudomonas aeruginosa BH02
[4] = system: Pseudomonas aeruginosa BH04
[5] = system: Pseudomonas aeruginosa PAO1
[6] = system: Pseudomonas aeruginosa ATCC 27853
[7] = system: Listeria monocytogenes KCTC 3710
[8] = system: Salmonella typhimurium KCTC 1926
[9] = system: Salmonella typhimurium CCARM 8013
[10] = system: Pseudomonas aeruginosa 3592
[11] = system: Staphylococcus aureus CCARM 3114
[12] = system: Staphylococcus aureus ATCC 25923
[13] = system: Salmonella typhimurium CCARM 8009
[14] = system: Escherichia coli CCARM 1238
[15] = system: Escherichia coli NBRC 3972
[16] = system: Pseudomonas aeruginosa NBRC 13275
[17] = system: Staphylococcus aureus NBRC 13276
[18] = system: Klebsiella pneumoniae CGMCC 1.1736
[19] = system: Escherichia coli CGMCC 1.8732
[20] = system: Pseudomonas aeruginosa CGMCC 1.2421
[21] = system: Staphylococcus aureus CGMCC 1.8721
[22] = system: Staphylococcus epidermidis CGMCC 1.4260
[23] = system: Bacillus subtilis CGMCC 1.3376
Aeromonas sobria = system: Aeromonas sobria
Vibrio parahaemolyticus = system: Vibrio parahaemolyticus
Vibrio cholerae = system: Vibrio cholerae
Escherichia coli = system: Escherichia coli
Staphylococcus aureus = system: Staphylococcus aureus
Bacillus subtilis = system: Bacillus subtilis
Candida glabrata 1 = system: Candida glabrata 1
Acinetobacter baumannii = system: Acinetobacter baumannii
Shigella dysenteriae = system: Shigella dysenteriae
Escherichia coli 1 = system: Escherichia coli 1
Vibrio harveyi = system: Vibrio harveyi
Aeromonas veronii = system: Aeromonas veronii
[24] = system: Stenotrophomonas maltophilia 2
Bacillus cereus = system: Bacillus cereus
Staphylococcus aureus 4 = system: Staphylococcus aureus 4
Candida albicans = system: Candida albicans
Vibrio anguillarum = system: Vibrio anguillarum
Proteus vulgaris = system: Proteus vulgaris
Staphylococcus aureus 1 = system: Staphylococcus aureus 1
Klebsiella oxytoca = system: Klebsiella oxytoca
Nocardia asteroides = system: Nocardia asteroides
[25] = system: Stenotrophomonas maltophilia
Aspicilia cinerea = system: Aspicilia cinerea
Proteus mirabilis = system: Proteus mirabilis
[26] = system: Staphylococcus epidermidis
Pseudomonas aeruginosa = system: Pseudomonas aeruginosa
[27] = system: Salmonella enterica subsp. enterica serovar Paratyphi A
Enterococcus faecium = system: Enterococcus faecium
[28] = system: Escherichia coli ATCC 25922
Enterococcus faecalis = system: Enterococcus faecalis
Klebsiella pneumoniae = system: Klebsiella pneumoniae
Aeromonas hydrophila = system: Aeromonas hydrophila
Candida glabrata = system: Candida glabrata

Q: For `CC(=O)N[C@@H](CCC(=O)O)C(=O)N[C@@H](CCC(=O)O)C(=O)N[C@@H](CCC(=O)O)C(=O)N[C@@H](CCC(=O)O)C(=O)N[C@@H](C)C(=O)N[C@@H](C)C(=O)N[C@@H](C)C(=O)NCC(=O)N[C@@H](Cc1c[nH]c2ccccc12)C(=O)NCC(=O)N[C@@H](CC(C)C)C(=O)N[C@@H](CCCN=C(N)N)C(=O)N[C@@H](CCCN=C(N)N)C(=O)N[C@@H](CC(C)C)C(=O)N[C@@H](CC(C)C)C(=O)N[C@@H](CCCCN)C(=O)N[C@@H](Cc1ccc(O)cc1)C(=O)NCC(=O)N[C@@H](CCCCN)C(=O)N[C@@H](CCCN=C(N)N)C(=O)N[C@@H](CO)C(N)=O` [EEEEAAAGWGLRRLLKYGKRS], which MIC [1] is on record?
A: 26.4 µM (≈ 65.1 µg/mL)

Q: What about the MIC [2] of the same molecule?
A: 26.4 µM (≈ 65.1 µg/mL)

Q: What about the MIC [3] of the same molecule?
A: 26.4 µM (≈ 65.1 µg/mL)

Q: And the MIC [4]?
A: 26.4 µM (≈ 65.1 µg/mL)

Q: And the MIC [5]?
A: 26.4 µM (≈ 65.1 µg/mL)

Q: How did the MIC [6] turn out when `CC[C@H](C)[C@H](NC(=O)[C@H](Cc1c[nH]c2ccccc12)NC(=O)[C@H](CCCCN)NC(=O)[C@@H](NC(=O)[C@@H](N)CCCCN)[C@@H](C)CC)C(=O)N[C@@H](CC(C)C)C(=O)N[C@@H](CCCCN)C(=O)N[C@@H](Cc1ccc(O)cc1)C(=O)N[C@@H](Cc1c[nH]c2ccccc12)C(=O)N[C@@H](CCCCN)C(=O)N[C@@H](Cc1c[nH]c2ccccc12)C(=O)N[C@@H](CO)C(=O)O` [KIKWILKYWKWS] was run?
A: 4 µM and 8 µM

Q: And the MIC [7]?
A: 4 µM (≈ 6.72 µg/mL)

Q: What about the MIC [8] of the same molecule?
A: 2 µM (≈ 3.36 µg/mL)

Q: And the MIC [9]?
A: 16 µM and ≥ 32 µM

Q: What about the MIC [10] of the same molecule?
A: 8 µM and 16 µM

Q: And the MIC [11]?
A: 16 µM and ≥ 32 µM

Q: What about the MIC [12] of the same molecule?
A: 0.25 µM (≈ 0.42 µg/mL)

Q: And the MIC [13]?
A: 8 µM (≈ 13.4 µg/mL)

Q: What about the MIC [14] of the same molecule?
A: 4 µM and 8 µM

Q: `CC(=O)N[C@@H](CCCCN)C(=O)N[C@@H](CCCCN)C(=O)N[C@@H](C)C(=O)N[C@@H](CCCCN)C(=O)N[C@@H](CCCCN)C(=O)N[C@@H](C)C(=O)N[C@@H](CCCCN)C(=O)N[C@@H](CCCCN)C(=O)N[C@@H](C)C(N)=O` [KKAKKAKKA] was tested. Which MIC [15] did it give?
A: ≥ 800 µM

Q: And the MIC [16]?
A: ≥ 800 µM

Q: What about the MIC [17] of the same molecule?
A: ≥ 800 µM

Q: `CC[C@H](C)[C@H](NC(=O)[C@H](CO)NC(=O)CNC(=O)[C@@H](NC(=O)[C@@H](N)CCCN=C(N)N)[C@@H](C)CC)C(=O)N[C@@H](CC(C)C)C(=O)NCC(=O)N[C@@H](CCCN=C(N)N)C(=O)N[C@@H](CC(C)C)C(=O)N[C@@H](C)C(=O)N[C@@H](CCCCN)C(=O)NCC(=O)N[C@@H](CC(C)C)C(=O)N1CCC[C@H]1C(=O)N[C@H](C(=O)N[C@@H](CC(C)C)C(=O)N[C@@H](CCCN=C(N)N)C(=O)N[C@@H](CO)C(=O)N[C@@H](Cc1c[nH]c2ccccc12)C(=O)N[C@H](C(=O)N[C@@H](CCCCN)C(=O)N[C@@H](CC(N)=O)C(=O)N[C@@H](CCCN=C(N)N)C(N)=O)[C@@H](C)CC)[C@@H](C)O` [RIGSILGRLAKGLPTLRSWIKNR] was tested. Which MIC [18] did it give?
A: 12.5 µM (≈ 32.6 µg/mL)

Q: What about the MIC [19] of the same molecule?
A: 12.5 µM (≈ 32.6 µg/mL)

Q: And the MIC [20]?
A: 12.5 µM (≈ 32.6 µg/mL)

Q: And the MIC [21]?
A: ≥ 100 µM

Q: What about the MIC [22] of the same molecule?
A: 3.13 µM (≈ 8.15 µg/mL)

Q: What about the MIC [23] of the same molecule?
A: 12.5 µM (≈ 32.6 µg/mL)

Q: How did the MIC (Aeromonas sobria) turn out when `CC[C@H](C)[C@H](NC(=O)CNC(=O)[C@H](Cc1c[nH]c2ccccc12)NC(=O)CNC(=O)[C@H](C)NC(=O)[C@H](C)NC(=O)[C@H](CCCCN)NC(=O)[C@H](CC(C)C)NC(=O)CNC(=O)CNC(=O)[C@H](CCCN=C(N)N)NC(=O)[C@H](CC(C)C)NC(=O)[C@H](CC(C)C)NC(=O)[C@H](Cc1c[nH]c2ccccc12)NC(=O)[C@H](CC(C)C)NC(=O)[C@H](Cc1c[nH]c2ccccc12)NC(=O)[C@H](CCCN=C(N)N)NC(=O)[C@@H](N)[C@@H](C)O)C(=O)N[C@@H](CCCN=C(N)N)C(=O)N[C@@H](C)C(=O)N[C@@H](Cc1cnc[nH]1)C(=O)N[C@@H](CC(C)C)C(=O)N[C@@H](CC(N)=O)C(=O)N[C@@H](CCCN=C(N)N)C(=O)N[C@@H](CC(N)=O)C(=O)N[C@@H](CCC(N)=O)C(=O)O` [TRWLWLLRGGLKAAGWGIRAHLNRNQ] was run?
A: 12.3 µM (≈ 37.5 µg/mL)

Q: And the MIC (Vibrio parahaemolyticus)?
A: 12.3 µM (≈ 37.5 µg/mL)

Q: And the MIC [6]?
A: 12.3 µM (≈ 37.5 µg/mL)

Q: And the MIC (Vibrio cholerae)?
A: 12.3 µM (≈ 37.5 µg/mL)

Q: And the MIC (Escherichia coli)?
A: 4.36 µM (≈ 13.3 µg/mL)

Q: And the MIC (Staphylococcus aureus)?
A: 12.3 µM (≈ 37.5 µg/mL)

Q: And the MIC (Bacillus subtilis)?
A: 3.08 µM (≈ 9.38 µg/mL)

Q: And the MIC (Candida glabrata 1)?
A: ≥ 65.7 µM

Q: And the MIC (Acinetobacter baumannii)?
A: ≥ 65.7 µM

Q: And the MIC (Shigella dysenteriae)?
A: 12.3 µM (≈ 37.5 µg/mL)

Q: What about the MIC (Escherichia coli 1) of the same molecule?
A: 1.54 µM (≈ 4.69 µg/mL)

Q: And the MIC (Vibrio harveyi)?
A: 12.3 µM (≈ 37.5 µg/mL)

Q: And the MIC (Aeromonas veronii)?
A: 24.6 µM (≈ 75 µg/mL)

Q: What about the MIC [24] of the same molecule?
A: 6.16 µM (≈ 18.8 µg/mL)

Q: What about the MIC (Bacillus cereus) of the same molecule?
A: ≥ 65.7 µM

Q: What about the MIC (Staphylococcus aureus 4) of the same molecule?
A: 3.08 µM (≈ 9.38 µg/mL)

Q: And the MIC (Candida albicans)?
A: > 65.7 µM

Q: And the MIC (Vibrio anguillarum)?
A: 6.16 µM (≈ 18.8 µg/mL)

Q: And the MIC (Proteus vulgaris)?
A: ≥ 65.7 µM

Q: And the MIC (Staphylococcus aureus 1)?
A: ≥ 65.7 µM

Q: And the MIC (Klebsiella oxytoca)?
A: ≥ 65.7 µM

Q: And the MIC (Nocardia asteroides)?
A: 6.16 µM (≈ 18.8 µg/mL)

Q: And the MIC [25]?
A: ≥ 65.7 µM

Q: What about the MIC (Aspicilia cinerea) of the same molecule?
A: ≥ 65.7 µM

Q: What about the MIC (Proteus mirabilis) of the same molecule?
A: 3.08 µM (≈ 9.38 µg/mL)

Q: And the MIC [26]?
A: ≥ 65.7 µM

Q: What about the MIC (Pseudomonas aeruginosa) of the same molecule?
A: 6.16 µM (≈ 18.8 µg/mL)

Q: And the MIC [12]?
A: > 65.7 µM

Q: What about the MIC [27] of the same molecule?
A: 12.3 µM (≈ 37.5 µg/mL)

Q: What about the MIC (Enterococcus faecium) of the same molecule?
A: ≥ 65.7 µM

Q: And the MIC [28]?
A: 3.08 µM (≈ 9.38 µg/mL)

Q: And the MIC (Enterococcus faecalis)?
A: ≥ 65.7 µM

Q: And the MIC (Klebsiella pneumoniae)?
A: 3.08 µM (≈ 9.38 µg/mL)

Q: And the MIC (Aeromonas hydrophila)?
A: 12.3 µM (≈ 37.5 µg/mL)

Q: What about the MIC (Candida glabrata) of the same molecule?
A: 12.3 µM (≈ 37.5 µg/mL)
